Test results from patent US20060293351A1, “Promotion of wound healing” (priority 1999, published 2006).

System: incision at tumor implantation site
Test: Wound healing in nude mice implanted with C6 rat glioma tumors
Assay type: in vivo, CD1-nude mice
Protocol: Tumors from C6 rat glioma cells were prepared and implanted in nude mice. Certain mice received Halofuginone, either orally or through i.p. (intra-peritoneal) administration. […] The experimental method was as follows. C6 rat glioma cells were cultured in DMEM supplemented with 5% FCS, 50 units/ml penicillin, 50 micrograms/ml streptomycin and 125 […]. Aggregation of cells into small spheroids of about 150 microns was initiated by replating cells from confluent cultures onto agar-coated bacteriological plates. After 4-5 days in culture, the suspension was transferred to a 250 ml spinner flask (Bellco, USA), and the medium was changed every other da for 30-40 days. All culture operations were performed at 37° C. and 5% CO2. Other conditions were as previously reported (Abramovitch et al., Br. J. Cancer, 77:440-447, 1998; Abramovitch et al., Cancer Res., 55:1956-62, 1995). For the implantation of the cells, male CD1-nude mice, two months old and 30 g body weight, were anesthetized. A single tumor, about 1 mm in diameter, was implanted in each mouse stubcutaneously in the lower back at the site of a 4 mm incision, using a Teflon tubing, as reposed previously (Abramovitch et al., Br. J. Cancer, 77:440-447, 1998). The incision was formed with fine surgical scissors and closed with an adhesive bandage. The mice were then divided into six groups. One group received Halofuginone by oral administration as previously described. Four groups received different concentrations of Halofuginone through i.p. injections every other day (0.1, 0.5, 2 and 4 micrograms of Halofuginone per injection). One group received sham injections (no Halofuginone). MRI microimaging of the implanted tumor was performed on a horizontal 4.7 T Bruker-Biospec spectrometer using an actively RF decoupled surface coil, 2 cm in diameter, and a bird-cage transmission coil, as reported previously (Abramovitch et al., Br. J. Cancer, 77:440-447, 1998; and Abramovitch et al., Magn. Reson. Med., 39:813-824, 1998). Mice were anesthetized and placed supine with the tumor located at the center of the surface coil. Gradient echo images were acquired with a slice thickness of 0.5 mm, TE of 10 ms, TR of 230 ms and 256×256 pixels matrix resulting in in-plane resolution of 110 microns. Growth of the capillary bed was reflected by reduction of the mean intensity at a region of interest of 1 mm surrounding the tumor (Abramovitch et al., Br. J. Cancer, 77:440-447, 1998; and Abramovitch et al., Magn. Reson. Med., 39:813-824, 1998). At the end of the experimental period, the mice were sacrificed, and sections were obtained and prepared as previously described above. […] Such a result is surprising since wounds located less than 1 mm from a tumor implantation site have been previously shown not to heal rapidly.

[1] = orally or 4 micrograms per i.p. injection
[2] = particularly at the highest dose (4 micrograms per i.p. injection)

With `O=C(CC1NCCC[C@H]1O)Cn1cnc2cc(Br)c(Cl)cc2c1=O` (stereo partly shown) [Halofuginone] the “complete re-epitheliazation (mice per group)” value (4 micrograms per i.p. injection every other day) was 4 out of 5, the “complete re-epitheliazation (mice per group)” value (administered orally) was 4 out of 5 and the “re-epitheliazation (mice per group)” value (all other groups (0.1, 0.5, 2 micrograms per i.p. injection; sham)) was 1 out of 5. For the same compound, the “scarring at the site of the wound” value [1] was “no scarring”, the “wound healing despite presence of tumor” value [1] was “significantly improved wound healing” and the collagen content [2] was “decreased”. For the same compound, the “expression of the collagen α1(I) gene” value [2] was “decreased”.
